{
  "source": "patent US20180103638A1",
  "about": "“SOIL TREATMENT” (PeroxyChem LLC, priority 2016, published 2018)",
  "key": {"[1]": {"test_system": "Bacillus mycoides", "type": "cell-based", "conditions": "treated four days, soil", "source_text": "(§1) Test method: A peracetic acid stock solution containing 5% PAA and 22% H2O2 (VigorOx® from PeroxyChem, LLC) was used for methods that specified 1750 ppm PAA. A peracetic acid stock solution containing 15% PAA and 10% H2O2 (VigorOx SP-15) was used for methods that specified 3525 ppm PAA. A stock solution of formaldehyde (37% in 10-15% methanol) was used to prepare a 1% aqueous solution of formaldehyde (with about 0.3% methanol).\n(§2) Solutions were applied as the soil drench with an application volume of 12 kL/ha. The Test Medium was: pasteurized 50:50 Loamy sand or pasteurized sand. The efficacy of PAA was evaluated in three different Greenhouse Test Assays: 1) the Tomato Root-knot Galling Index Assay using the nematode species Meloidogyne incognita and Meloidogyne hapla; 2) the Root-knot Nematode Egg Hatch Assay using the nematode species Meloidogyne incognita and Meloidogyne hapla; and 3) assay of levels of soil bacteria using Bacillus mycoides.\nSoil was inoculated with Bacillus mycoides, incubated for five days and then treated with formaldehyde or […] for four days. Bacteria were collected from soil and their levels were evaluated based on colony forming units."}, "[2]": {"test_system": "Meloidogyne incognita and Meloidogyne hapla", "type": "in vivo", "source_text": "as §1, §2"}, "[3]": {"test_system": "Meloidogyne incognita and Meloidogyne hapla", "test": "Root-knot Nematode Egg Hatch Assay (soil drench)", "type": "in vivo", "conditions": "for % Egg Hatching: Example 3, 1 ml/cm^2, sand-loam soil, relative to distilled water control (100)", "source_text": "as §1, §2\nThe Root-knot Nematode Egg Hatch Assay was carried out essentially as follows. Eggs were collected from roots of infected tomato plants. To release the eggs, the egg masses were placed in a solution of sodium hypochlorite and manually shaken. The solution was centrifuged and the eggs washed with distilled water. Eggs were kept in the dark until needed for the experiments and used in the same day of collection. The experiments were performed in pots filled with pasteurized soil inoculated with about several thousands of individual eggs and then drenched with each treatment solution and controls. The treated soils were covered and incubated for the time periods indicated below. Following the incubation period, the soils were transferred to collect hatched J2 (second stage juveniles). The collected material was observed under the microscope and the number of J2 counted.\nSeedlings were inoculated and cultured in pasteurized Pemberton soil for 14 days. Seedlings were then treated with either formaldehyde, 1750 ppm PAA or 3525 ppm PAA for 13 days. Nematode eggs were extracted from infected roots and their ability to hatch was evaluated.\nTest method: A peracetic acid stock solution containing 15% PAA and 10% H2O2 (VigorOx SP-15) was used for methods that specified 3750, 5000, 7500, 10000 ppm PAA. Capryleth-9 carboxylic acid (C9CA) was used at concentrations of 5000 and 10000 ppm. A stock solution of formaldehyde (37% in 10-15% methanol) was used to prepare a 1% aqueous solution of formaldehyde. The final methanol concentration was about 0.3%.\nSolutions were applied as a soil drench with an application volume of 12 kL/ha. The Test Medium was pasteurized Pemberton loamy soil, sand or pasteurized sand. The efficacy of PAA was evaluated with the Root-Knot Nematode Egg Hatch Assay using the nematode species Meloidogyne incognita and Meloidogyne hapla.\nSeedlings were inoculated and cultured for 22 days and then treated for 21 days with either PAA alone at various concentrations, C9CA alone at various concentrations, or a combination of PAA and C9CA. Nematode eggs were extracted from infected roots and their ability to hatch was evaluated.\nTest method: A peracetic acid stock solution containing 15% PAA and 10% H2O2 (VigorOx SP-15) was used for methods that specified 3500 and 20,000 ppm PAA. Capryleth-9 carboxylic acid (C9CA) was used at concentrations of 250 and 10000 ppm.\nSolutions were applied as a soil drench with an application volume of 1 ml/cm^2. The Test Medium was pasteurized sand-loam soil. The efficacy of PAA was evaluated with the Root-knot Nematode Egg Hatch Assay using the nematode species Meloidogyne incognita and Meloidogyne hapla.\nThe viability of the root-knot nematodes eggs used for each set of experiments in this example was also evaluated. Eggs were incubated with the different solutions in glass dishes in the dark at 25° C. They were observed daily under the microscope to confirm that the eggs were viable and able to hatch in water after 18 hr/24 hr of incubation."}, "[4]": {"test_system": "Bacillus subtilis ATCC 19659", "test": "Sporicidal assay in soil", "type": "cell-based", "conditions": "3525 ppm PAA; 1 hour, 2 and 7 days treatment", "experimental": "Test method: A peracetic acid stock solution containing 15% PAA and 10% H2O2 (VigorOx SP-15) was used for methods that specified 3525 ppm PAA. Deionized water was used as a control.\nSolutions were applied as the soil drench with an application volume of 1.5 ml/cm^2. The Test Medium was pasteurized Pemberton soil. The spore inoculum was Bacillus subtilis ATCC 19659. Spores were counted as follows: Soil was pasteurized to remove background microbial content. The soil was distributed into test cells. Concentrated Bacillus subtilis ATCC 19659 spore suspension was diluted in Butterfield's buffer and used as the inoculum in this test. For titer determination, the inoculum was diluted in Butterfield's buffer and plated on Petrifilm APC. In order to test for antimicrobial efficacy following treatments, soil was scooped from the cell and measured into a sterile plastic centrifuge tube. Deionized water was then added to each soil sample. The tubes were then capped, shaken to suspend soil, and vortexed at maximum speed using the lab vortex. The samples were allowed to settle for several seconds, and then 2 mL of fluid was removed from the tube. One ml of the removed sample was diluted in 9 mL Butterfield's buffer. The remainder of the removed sample was plated onto Petrifilm APC. […] The plates were all incubated at 30±2° C. for 2-5 days and then colonies on the plates were counted."}, "[5]": {"test_system": "Aspergillus niger ATCC 16404", "test": "Fungicidal assay in soil", "type": "cell-based", "experimental": "Test method: A peracetic acid stock solution containing 15% PAA and 10% H2O2 (VigorOx SP-15) was used for methods that specified 3500 and 20,000 ppm PAA. Capryleth-9 carboxylic acid (C9CA) was used at concentrations of 5000 and 30,000 ppm.\nSolutions were applied as a soil drench with an application volume of 1.5 ml/cm^2. The Test Medium was pasteurized Pemberton soil. The spore inoculum was Aspergillus niger ATCC 16404. The fungicidal activity of the compositions was evaluated as follows: Soil was pasteurized to remove background microbial content. The soil was the filled into test cells. Aspergillus niger ATCC 16404 was grown on Potato Dextrose Agar (PDA) plates for 5 days at 35° C. A culture for test was prepared by washing a plate with Butterfield's buffer, grinding in a sterile tissue grinder, and filtering through a cell filter to remove hyphae and debris. The suspension was diluted 1:100 in Butterfield's buffer and was added to the soil as the inoculum. The inoculum was enumerated on Petrifilm APC to determine the titer. In order to analyze antimicrobial efficacy following the treatments, soil was scooped from the cell and weighed into a sterile plastic cup. Sterile deionized water was added to the cup using a serological pipette. The cups were then capped, shaken to suspend soil, and vortexed at maximum speed using the lab vortex. The samples were allowed to settle for several seconds, and then 2 mL of fluid was removed from the tube. One ml of the removed fluid was diluted in 9 mL Butterfield's buffer. The remaining removed fluid was plated onto Petrifilm Petrifilm YM. The diluted sample was further serially diluted and plated to 10^−3 on YM. The plates were all incubated at 35±2° C. for 3 to 4 days and colonies were counted."}},
  "note": "“Also recorded” adds a separate entry of the source. Where two headings read alike, the source gives them in different places.",
  "data": [
    {"molecule": "C=O", "note": "[Formaldehyde, formaldehyde, reference compound]", "values": [
      {"measurement": "% Reduction in population (CFU's)", "setting": "[1]; at 1%", "result": 42.5, "unit": "%"},
      {"measurement": "Root-knot Galling Index", "setting": "[2]; in vivo", "result": 2},
      {"measurement": "% Reduction of J2 Population", "setting": "[3]; in vivo", "result": 60, "unit": "%"},
      {"measurement": "% Reduction of J2 population", "setting": "[3]; in vivo", "result": 78, "unit": "%"}
    ]},
    {"molecule": "CC(=O)OO", "note": "[PAA, peracetic acid]", "values": [
      {"measurement": "% Reduction in population (CFU's)", "setting": "[1]; 1750 ppm PAA", "result": 47.5, "unit": "%"},
      {"measurement": "bacterial spores capable of giving rise to viable colonies recovered", "setting": "[4]", "result": "no bacterial spores capable of giving rise to viable colonies were recovered"},
      {"measurement": "Log10 CFU", "setting": "[5]; 3500 ppm PAA, 1 hour", "result": 3.2, "unit": "Log10 CFU"},
      {"measurement": "Log10 CFU", "setting": "[5]; 3500 ppm PAA, 24 hours", "result": 0.0, "unit": "Log10 CFU"},
      {"measurement": "Log10 Reduction", "setting": "[5]; 3500 ppm PAA, 24 hours", "result": "completely eliminated; also recorded: Total kill"},
      {"measurement": "elimination of Aspergillus niger", "setting": "[5]; 7000 ppm PAA, one hour of treatment", "result": "complete elimination"},
      {"measurement": "Log10 CFU", "setting": "[5]; 7500 ppm PAA, 1 hour", "result": 0.0, "unit": "Log10 CFU"},
      {"measurement": "Log10 Reduction", "setting": "[5]; 7500 ppm PAA, 1 hour", "result": "Total kill"},
      {"measurement": "Log10 CFU", "setting": "[5]; 7500 ppm PAA, 24 hours", "result": 0.0, "unit": "Log10 CFU"},
      {"measurement": "Log10 Reduction", "setting": "[5]; 7500 ppm PAA, 24 hours", "result": "Total kill"},
      {"measurement": "Root-knot Galling Index", "setting": "[2]; 1750 ppm PAA, soil drench 12 kL/ha, treated 27 days, scale 0=no galling to 10=severe galling", "result": "only a modest reduction"},
      {"measurement": "% Reduction of J2 population", "setting": "[3]; Example 1, 1750 ppm PAA, 12 kL/ha, treated 13 days, Pemberton soil", "result": "did not reduce"},
      {"measurement": "% Reduction of J2 population", "setting": "[3]; Example 1, 3525 ppm PAA, 12 kL/ha, treated 13 days, Pemberton soil", "result": 51, "unit": "%"},
      {"measurement": "% Reduction of J2 Population", "setting": "[3]; Example 2, 5000 ppm PAA, 12 kL/ha, 21 days after treatment", "result": 20, "unit": "%"},
      {"measurement": "% Reduction of J2 Population", "setting": "[3]; Example 2, 10000 ppm PAA, 12 kL/ha, 21 days after treatment", "result": 28, "unit": "%"},
      {"measurement": "% Egg Hatching", "setting": "[3]; 20000 ppm PAA", "result": 53, "unit": "%"}
    ]},
    {"molecule": "Capryleth-9 Carboxylic Acid [C9CA]", "values": [
      {"measurement": "% Reduction of J2 Population", "setting": "[3]; Example 2, 10000 ppm C9CA, 12 kL/ha, 21 days after treatment", "result": 10, "unit": "%"},
      {"measurement": "% Egg Hatching", "setting": "[3]; 250 ppm C9CA", "result": 66, "unit": "%"}
    ]}
  ]
}
